System: 521955-158-R2-J5-PDC complex spheroid viability
Assay: Anticancer human tumor 521955-158-R2-J5-PDC patient-derived pancreatic carcinoma cell line growth inhibition
Details: for IC50: curve of first compound; for viability, T/C: stronger effect = lower value
In short: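 Multicellular complex spheroids of tumor cells with human endothelial cells (HUVEC) and mesenchymal stem cells; the LSD1 inhibitor iadademstat was combined with standard-of-care or investigational agents. Top concentration at or near clinical Cmax, half-log dilutions; final DMSO ≤0.25%.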

[1] = second compound 0.1 µM, first compound 0.00316 µM
[2] = second compound 0.1 µM, first compound 0.01 µM
[3] = second compound 0.1 µM, first compound 0.0316 µM
[4] = second compound 0.1 µM, first compound 0.1 µM
[5] = second compound 0.1 µM, first compound 0.316 µM
[6] = second compound 0.1 µM, first compound 1 µM
[7] = second compound 0.316 µM, first compound 0.00316 µM
[8] = second compound 0.316 µM, first compound 0.01 µM
[9] = second compound 0.316 µM, first compound 0.0316 µM
[10] = second compound 0.316 µM, first compound 0.1 µM
[11] = second compound 0.316 µM, first compound 0.316 µM
[12] = second compound 0.316 µM, first compound 1 µM
[13] = second compound 1 µM, first compound 0.00316 µM
[14] = second compound 1 µM, first compound 0.01 µM
[15] = second compound 1 µM, first compound 0.0316 µM
[16] = second compound 1 µM, first compound 0.1 µM
[17] = second compound 1 µM, first compound 0.316 µM
[18] = second compound 1 µM, first compound 1 µM
[19] = second compound 3.16 µM, first compound 0.00316 µM
[20] = second compound 3.16 µM, first compound 0.01 µM
[21] = second compound 3.16 µM, first compound 0.0316 µM
[22] = second compound 3.16 µM, first compound 0.1 µM
[23] = second compound 3.16 µM, first compound 0.316 µM
[24] = second compound 3.16 µM, first compound 1 µM
[25] = second compound 10 µM, first compound 0.00316 µM
[26] = second compound 10 µM, first compound 0.01 µM
[27] = second compound 10 µM, first compound 0.0316 µM
[28] = second compound 10 µM, first compound 0.1 µM
[29] = second compound 10 µM, first compound 0.316 µM
[30] = second compound 10 µM, first compound 1 µM
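Note: spheroids exposed to agents for seven days.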
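Throughout, for viability, T/C: percent of DMSO vehicle control luminescence viability.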

For Nc1ncn(C2CC(O)C(CO)O2)c(=O)n1 (stereo not given) + NC1CCC(NC2CC2c2ccccc2)CC1, the IC50 (second compound 0.1 µM) was > 1000 nM, the IC50 (second compound 0.316 µM) was > 1000 nM and the IC50 (second compound 1 µM) was > 1000 nM. For the same compound, the IC50 (second compound 3.16 µM) was 941 nM, the IC50 (second compound 10 µM) was > 1000 nM and the viability, T/C [1] was 101%. It also gave a viability, T/C [2] of 108%, a viability, T/C [3] of 93.6% and a viability, T/C [4] of 79.7%. The viability, T/C [5] was 69.6%, the viability, T/C [6] was 64.2% and the viability, T/C [7] was 97.4%. For the same compound, the viability, T/C [8] was 96%, the viability, T/C [9] was 85.6% and the viability, T/C [10] was 83.4%. It also gave a viability, T/C [11] of 63%, a viability, T/C [12] of 55.3% and a viability, T/C [13] of 99.3%. It also gave a viability, T/C [14] of 90.1%, a viability, T/C [15] of 85.3% and a viability, T/C [16] of 74.4%. The viability, T/C [17] was 60.5%, the viability, T/C [18] was 56.3% and the viability, T/C [19] was 96.4%. It also gave a viability, T/C [20] of 95.4%, a viability, T/C [21] of 93.1% and a viability, T/C [22] of 75.4%. For the same compound, the viability, T/C [23] was 59.1%, the viability, T/C [24] was 49% and the viability, T/C [25] was 95.3%. It also gave a viability, T/C [26] of 91%, a viability, T/C [27] of 92.8% and a viability, T/C [28] of 76.5%. It also gave a viability, T/C [29] of 62.5% and a viability, T/C [30] of 51.6%.
For CC(C)c1c(-c2ccccc2)nc2c(C#N)c[nH]n2c1=O + NC1CC1c1ccc(-c2cccc(O)c2)cc1, the IC50 (second compound 0.1 µM) was > 10000 nM, the IC50 (second compound 0.316 µM) was > 10000 nM and the IC50 (second compound 1 µM) was > 10000 nM. For the same compound, the IC50 (second compound 3.16 µM) was > 10000 nM, the IC50 (second compound 10 µM) was 3300 nM and the viability, T/C [3] was 48.6%. For the same compound, the viability, T/C [4] was 55.6%, the viability, T/C [5] was 62.2% and the viability, T/C [6] was 46.3%. It also gave a viability, T/C (second compound 0.1 µM, first compound 3.16 µM) of 54.8%, a viability, T/C (second compound 0.1 µM, first compound 10 µM) of 56.8% and a viability, T/C [9] of 54.5%. The viability, T/C [10] was 55.9%, the viability, T/C [11] was 60.8% and the viability, T/C [12] was 56.3%. It also gave a viability, T/C (second compound 0.316 µM, first compound 3.16 µM) of 54.5%, a viability, T/C (second compound 0.316 µM, first compound 10 µM) of 46.8% and a viability, T/C [15] of 65.5%. It also gave a viability, T/C [16] of 70.8%, a viability, T/C [17] of 72.2% and a viability, T/C [18] of 58.8%. It also gave a viability, T/C (second compound 1 µM, first compound 3.16 µM) of 60.6%, a viability, T/C (second compound 1 µM, first compound 10 µM) of 49.5% and a viability, T/C [21] of 57.6%. It also gave a viability, T/C [22] of 67.2%, a viability, T/C [23] of 71.3% and a viability, T/C [24] of 69.8%. For the same compound, the viability, T/C (second compound 3.16 µM, first compound 3.16 µM) was 58.3%, the viability, T/C (second compound 3.16 µM, first compound 10 µM) was 39.7% and the viability, T/C [27] was 62.9%. It also gave a viability, T/C [28] of 72.7%, a viability, T/C [29] of 70.2% and a viability, T/C [30] of 61.8%. The viability, T/C (second compound 10 µM, first compound 3.16 µM) was 50.9% and the viability, T/C (second compound 10 µM, first compound 10 µM) was 41.3%.
With CC(C)CC(NC(=O)C(Cc1ccccc1)NC(=O)c1cnccn1)B(O)O (stereo not given) + NC1CCC(NC2CC2c2ccccc2)CC1 the IC50 (second compound 0.1 µM) was 0.491 nM, the IC50 (second compound 0.316 µM) was 0.468 nM and the IC50 (second compound 1 µM) was 0.509 nM. It also gave an IC50 (second compound 3.16 µM) of 0.525 nM, an IC50 (second compound 10 µM) of 0.512 nM and a viability, T/C (second compound 0.1 µM, first compound 0.000316 µM) of 80.7%. The viability, T/C (second compound 0.1 µM, first compound 0.001 µM) was 0.24%, the viability, T/C [1] was 0.24% and the viability, T/C [2] was 0.06%. The viability, T/C [3] was 0.05%, the viability, T/C [4] was 0.94% and the viability, T/C (second compound 0.316 µM, first compound 0.000316 µM) was 75.7%. The viability, T/C (second compound 0.316 µM, first compound 0.001 µM) was 0.23%, the viability, T/C [7] was 0.12% and the viability, T/C [8] was 0.04%. It also gave a viability, T/C [9] of 0.07%, a viability, T/C [10] of 0.21% and a viability, T/C (second compound 1 µM, first compound 0.000316 µM) of 84.9%. It also gave a viability, T/C (second compound 1 µM, first compound 0.001 µM) of 0.24%, a viability, T/C [13] of 0.06% and a viability, T/C [14] of 0.04%. The viability, T/C [15] was 0.09%, the viability, T/C [16] was 0.2% and the viability, T/C (second compound 3.16 µM, first compound 0.000316 µM) was 88.1%. For the same compound, the viability, T/C (second compound 3.16 µM, first compound 0.001 µM) was 0.24%, the viability, T/C [19] was 0.12% and the viability, T/C [20] was 0.04%. The viability, T/C [21] was 0.06%, the viability, T/C [22] was 5.74% and the viability, T/C (second compound 10 µM, first compound 0.000316 µM) was 82.9%. For the same compound, the viability, T/C (second compound 10 µM, first compound 0.001 µM) was 4.43%, the viability, T/C [25] was 0.22% and the viability, T/C [26] was 0.39%. For the same compound, the viability, T/C [27] was 0.18% and the viability, T/C [28] was 0.72%.

Reference: PubChem BioAssay AID1918937 (Molecular Pharmacology Branch, DTP, NCI, 2023)
